Earlier results as cited in paper PMC2096531 (Purinergic Signalling, 2005).

Biological target: human A2B receptors
Conditions: read-out: EC50 A2B, agonist

Structure (SMILES): CCNC(=O)[C@H]1O[C@@H](n2cnc3c(N)nc(C#CC(O)c4ccccc4)nc32)[C@H](O)[C@@H]1O (stereo partly drawn) [(R,S)-PHPNECA, (R,S)-2-phenyhydroxypropynyl-N-ethylcarboxamidoadenosine]
- EC50: 1100 nM
